Reference: PubChem BioAssay (NCI)
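Cultured in 96-well plates, cells were exposed to test compound for 48 hours across five concentrations. At the GI50, growth is halved. TGI is the concentration that stops growth completely.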

Legend:
Test in all cases: NCI-60 cell line screen, 48 h
A549 NSCLC = tested on: A549 NSCLC
CCRF-CEM leukemia = tested on: CCRF-CEM leukemia
HCC-2998 colon = tested on: HCC-2998 colon
HCT-116 colon = tested on: HCT-116 colon
HCT-15 colon = tested on: HCT-15 colon
HL-60(TB) leukemia = tested on: HL-60(TB) leukemia
OVCAR-4 ovarian = tested on: OVCAR-4 ovarian
OVCAR-8 ovarian = tested on: OVCAR-8 ovarian
SF-295 CNS = tested on: SF-295 CNS
SK-OV-3 ovarian = tested on: SK-OV-3 ovarian

Row | Structure (SMILES) | GI50 (A549 NSCLC) | TGI (A549 NSCLC) | GI50 (CCRF-CEM leukemia) | TGI (CCRF-CEM leukemia) | GI50 (HCC-2998 colon) | TGI (HCC-2998 colon) | GI50 (HCT-116 colon) | TGI (HCT-116 colon) | GI50 (HCT-15 colon) | TGI (HCT-15 colon) | GI50 (HL-60(TB) leukemia) | TGI (HL-60(TB) leukemia) | GI50 (OVCAR-4 ovarian) | TGI (OVCAR-4 ovarian) | GI50 (OVCAR-8 ovarian) | TGI (OVCAR-8 ovarian) | GI50 (SF-295 CNS) | TGI (SF-295 CNS) | GI50 (SK-OV-3 ovarian) | TGI (SK-OV-3 ovarian)
1 | CCOc1ccc2c(c1)/C(=C\C=C\C1CC(C)C3CC(OCC)CCC3N1CC)CC(C)N2CC (stereo not given) | 0.304 µM | 1.46 µM | 0.472 µM | 2.71 µM | 1.05 µM | 2.42 µM | 0.789 µM | 2.17 µM | 1.16 µM | 2.77 µM | 1.82 µM | 5.71 µM | 0.459 µM | 2 µM | 0.61 µM | 2.19 µM | 0.418 µM | 1.68 µM | 0.596 µM | 1.92 µM
2 | O=C1NC(=NCCc2ccccc2Cl)S/C1=C\c1ccc2ncccc2c1 | 5.16 µM | > 25 µM | 4.09 µM | > 25 µM | 6.33 µM | > 25 µM | 0.936 µM | > 25 µM | 1.18 µM | > 25 µM | 2.63 µM | 10.3 µM | 4.26 µM | > 14.9 µM | 8.16 µM | > 25 µM | 2.14 µM | > 11.2 µM | 5.94 µM | > 20.4 µM
3 | CC(C)(C)c1ccc(-c2nnc(SCc3ccc(Cl)cc3)n2-c2cccc(C(F)(F)F)c2)cc1 | – | > 100 µM | – | > 100 µM | – | > 62.4 µM | – | > 100 µM | – | > 100 µM | – | 14.6 µM | – | > 100 µM | – | > 100 µM | – | > 100 µM | – | > 100 µM
4 | CC(=O)Nc1ccc(C(=O)N[C@@H]2C(=O)N3[C@@H]2SC(C)(C)[C@@H]3C(=O)O)cn1 | – | > 100 µM | – | > 100 µM | – | > 100 µM | – | > 100 µM | – | > 100 µM | – | > 100 µM | – | > 100 µM | – | > 100 µM | – | > 100 µM | – | > 100 µM
5 | Cn1cc(C(=O)C2CCCCC2)ccc1=O | – | > 100 µM | – | > 100 µM | – | > 100 µM | – | > 100 µM | – | > 100 µM | – | > 100 µM | – | > 100 µM | – | > 100 µM | – | > 100 µM | – | > 100 µM
6 | COc1ccc(C2CC(c3cc(OC)c(OC)c(OC)c3)=NN2)cc1 (stereo not given) | 6.23 µM | > 100 µM | 6.34 µM | > 100 µM | 9.35 µM | 37.2 µM | 3.93 µM | > 100 µM | 3.48 µM | > 100 µM | 2.19 µM | 12 µM | 12.8 µM | > 100 µM | 28.4 µM | > 100 µM | 4.99 µM | > 100 µM | 12.4 µM | > 100 µM
7 | Nc1nc(Cl)nc2c1ncn2C1O[C@H](CO)[C@@H](O)[C@@H]1F (stereo not given in full) | 0.379 µM | > 100 µM | 0.0281 µM | > 100 µM | 0.075 µM | > 100 µM | 0.13 µM | > 100 µM | 4.73 µM | > 100 µM | 0.0305 µM | 0.14 µM | > 100 µM | > 100 µM | 0.0423 µM | > 100 µM | 2.87 µM | > 100 µM | 0.761 µM | > 100 µM
8 | Cn1cccc1-c1cc(-c2ccc(Br)cc2)nc(N)c1C#N | > 100 µM | > 100 µM | > 100 µM | > 100 µM | > 100 µM | > 100 µM | > 100 µM | > 100 µM | > 100 µM | > 100 µM | 0.413 µM | > 100 µM | 77.2 µM | > 100 µM | > 100 µM | > 100 µM | > 100 µM | > 100 µM | > 100 µM | > 100 µM
9 | O=Nc1c(-c2cccc([N+](=O)[O-])c2)nc2ncccn12 | 21.8 µM | 56.9 µM | 1.86 µM | 4.44 µM | 15.2 µM | 28.9 µM | 3.03 µM | 13.3 µM | 3.77 µM | 17.8 µM | 2.32 µM | 6.15 µM | 12 µM | 55.2 µM | 8.9 µM | 43.8 µM | 21.9 µM | 66.5 µM | 22.8 µM | 59.6 µM
